# Results published in PMC7190660, “Standardised comparison of limonene-derived monoterpenes identifies structural determinants of anti-inflammatory activity” (Scientific Reports, 2020).
# Values joined by “and” are separate entries in the source; they are usually repeats but may differ in a detail not shown here. Identical values can stand only once.
# What was measured:
# [1] = system: Raw 264.7 cells; test: Cytotoxicity by resazurin reduction assay in Raw 264.7 cells; assay type: cell-based, mouse; details: viability not decreased by more than 30% relative to LPS alone (ISO 10993-5), LPS 1 µg/mL 18 h
# Protocol: Various concentrations of the test compounds, in the absence or presence of LPS, were first evaluated for cytotoxicity using the resazurin reduction assay[26]
# (§1) Raw 264.7 cells were plated at a density of 3 × 10^5 cells/mL and left to stabilize for up to 24 h.
# Resazurin is a redox dye used as an indicator of cellular metabolic activity for various applications, namely cell viability, proliferation and toxicity. The assay is based on the intracellular reduction of the non-fluorescent resazurin to resorufin (a fluorescent and pink coloured compound) by mitochondrial or microsomal enzymes that use NADH or NADPH as electron sources. Since only metabolically active cells can reduce the dye, the increase in fluorescence or absorbance is directly proportional to the number of viable cells[26],[50].
# To select non-cytotoxic concentrations of the test compounds, the resazurin solution was added to each well to a final concentration of 50 µM, 90 min before the end of the treatment period indicated in the figure legends. Then, absorbances at 570 nm and 620 nm (reference wavelength) were read in a Biotek Synergy HT plate reader (Biotek, Winooski, VT, USA).
# [2] = system: LPS-induced NO production in Raw 264.7 macrophages; test: Primary screening: LPS-induced NO production (nitrite, Griess reaction) in Raw 264.7 macrophages; assay type: cell-based, mouse; details: for IC50: Mus musculus, RAW264.7, Raw 264.7 cell line; for Decrease (inhibition) of LPS-induced NO production: at the highest concentration tested; for Decrease (inhibition) of LPS-induced NO production / % inhibition of LPS-induced NO production / Effect on LPS-induced NO production / anti-inflammatory activity (in words): Raw 264.7; for % inhibition of LPS-induced NO production: at the highest non-cytotoxic concentration tested, nitrite in supernatants; for Effect on LPS-induced NO production / anti-inflammatory activity (in words): non-cytotoxic concentrations
# Protocol: as §1
# This vehicle was used as control. Lipopolysaccharides from Escherichia coli 026:B6 (LPS; Sigma-Aldrich Co.) were dissolved in phosphate buffered saline (PBS). Recombinant human interleukin-1β (IL-1β; Peprotech, Rocky Hill, NJ, USA) was dissolved in PBS containing 0.1% Bovine Serum Albumin.
# NO production was measured as the amount of nitrite accumulated in the culture supernatants using the Griess reaction which is based in the reaction of nitrite with sulfanilamide under acidic conditions, yielding a diazonium ion that couples to N-(1-napthtyl)ethylenediamine dihydrochloride to form a water-soluble red-violet azo dye that absorbs at 550 nm[51]. Briefly, equal volumes of culture supernatants and reagents [equal volumes of 1% (w/v) sulphanilamide in 5% (v/v) phosphoric acid and 0.1% (w/v) N-(1-napthtyl)ethylenediamine dihydrochloride] were mixed and incubated for 10 min, at room temperature, in the dark. The concentration of nitrite accumulated in the culture supernatants was calculated by interpolation of the absorbance of each sample, read in Biotek Synergy HT plate reader (Biotek), in a standard curve of sodium nitrite.
SMILES,Highest non-cytotoxic concentration tested [1],IC50 [2],Decrease (inhibition) of LPS-induced NO production [2],% inhibition of LPS-induced NO production [2],Effect on LPS-induced NO production / anti-inflammatory activity (in words) [2],Effect on LPS-induced NO production / anti-inflammatory activity (in words) ([2]; listed as 10),Effect on LPS-induced NO production / anti-inflammatory activity (in words) ([2]; listed as 2),Effect on LPS-induced NO production / anti-inflammatory activity (in words) ([2]; listed as 12),Effect on LPS-induced NO production / anti-inflammatory activity (in words) ([2]; listed as 1)
"C=C(C)[C@@H]1CCC(C)C(=O)C1 (single isomer, unassigned; (+)) [(+)-dihydrocarvone (7), (+)-dihydrocarvone]",2628 µM and 400 µg/mL,1.47 mM and 224 µg/mL,greater than 30%,73.57 ± 2.81 % ± SEM,,,,,
"C=C(C)[C@@H]1CC=C(C)C(O)C1 (single isomer, unassigned; (-)) [(−)-carveol (6), (−)-carveol]",2628 µM and 400 µg/mL,2 mM and 304 µg/mL,greater than 30%,52.30 ± 5.54 % ± SEM,,,,,
"C=C(C)[C@@H]1CC[C@](C)(O)[C@@H](O)C1 [(1 S,2 S,4 R)-(+)-limonene-1,2-diol (3), (1 S,2 S,4 R)-(+)-limonene-1,2-diol]",2349 µM and 400 µg/mL,,less than 20%,13.90 ± 2.03 % ± SEM,inactive,,,,
"C=C(C)[C@H]1CC[C@H](C)[C@@H](O)C1 [(+)-dihydrocarveol (8), (+)-dihydrocarveol]",1297 µM and 200 µg/mL,532 µM and 82.1 µg/mL,greater than 30%,71.03 ± 2.28 % ± SEM,,,,,
"C=C(C)[C@H]1CC[C@H](C)C[C@@H]1O [(+)-isopulegol (10), (+)-isopulegol]",2593 µM and 400 µg/mL,,,−18.47 ± 5.65 % ± SEM,inactive,no effect,,,
"CC1=CC[C@@H](C(C)(C)O)CC1=O [(R)-8-hydroxycarvotanacetone (21), (R)-5-(2-hydroxypropan-2-yl)-2-methylcyclohex-2-en-1-one]",2378 µM and 400 µg/mL,842 µM and 142 µg/mL,greater than 30%,76.25 ± 1.97 % ± SEM,significant activity,,,,
"C=C(C)[C@H]1CC=C(C)CC1 [(R)-(+)-limonene (2), (R)-(+)-limonene]",,,,−1.80 ± 0.55 % ± SEM,inactive,,no effect,,
"CC(C)=C1CC[C@@H](C)CC1=O [(R)-(+)-pulegone (12), (R)-(+)-pulegone]",1314 µM and 200 µg/mL,,,7.80 ± 2.98 % ± SEM,inactive,,,no effect,
"C=C(C)[C@@H]1CC=C(C)CC1 [(S)-(−)-limonene (1), (S)-(−)-limonene]",,,,11.08 ± 4.65 % ± SEM,inactive,,,,no effect
